The conditions of series [1]: cited from earlier work.
Series [2] has as its system hyperlipidemia rats. The series is described as follows: Liver tissue homogenate biochemical indicators in high-fat diet hyperlipidemia rats. It is filed as in vivo, SD rats. The settings on record: liver tissue, 20 mg/(kg d) by gastric gavage, 4 weeks, x ± s, n = 9. The text has this:
(§1) Animals: 54 SPF-grade SD rats, weighing 120±10 g, provided by Laboratory Animal Business Department, Shanghai Family Planning Research Institute, China, Animal license number: SCXK(Shanghai)2018-0006.
(§2) Drug to be tested: Nuciferine purchased from Shanghai Aladdin Biochemical Technology Co., Ltd., China, and its derivatives (purity >99%) that were synthesized in the laboratory by the methods of Examples 2-7.
(§3) Other reagents: AST, ALT, TC, TG, NEFA, Bun, Cr, CAT, GSH-Px, GSH, MDA test kits, purchased from Nanjing Jiancheng Bioengineering Institute, China; HL and PL test kits, purchased from Jianglai Biotechnology Co., Ltd., China; experimental reagents such as anhydrous ethanol, xylene, isopropanol neutral gum, purchased from Sinopharm Chemical Reagent Co., Ltd., China; HE dye solution, DAB color development agent, and oil red O dye solution, purchased from KeyGEN Biotechnology Co., Ltd, China; Antibodies IL-6 and TNF-α, purchased from Abcam Limited.
(§4) Modeling scheme: 54 adult rats of 120±10 g were selected and fed adaptively for three days. They were then randomly divided to 6 groups, 9 animals for each group. They were blank control group, model group, positive control group, nuciferine group, and nuciferine structural modification group. The blank control group was fed with normal diet. […] The feeding and modeling time was 5 weeks. Within 4 weeks after modeling, continuous administration was performed: the blank control group and model group were given 0.2 mL of distilled water by gastric gavage; the positive control group was administrated 20 mg/(kg d) of simvastatin; while the treatment group was administrated 20 mg/(kg d) of nuciferine or 20 mg/(kg d) of a derivative of nuciferine (compounds 6a-6f).
(§5) Liver tissue sample collection: the rats were killed by dislocation, and the liver was taken out immediately after death, which was observed by naked eye to find out whether there was abnormal color and lesions, and was then rinsed with ice normal saline. The left lobe of the liver was quickly cut into small pieces and fixed in 10% formaldehyde overnight for sectioning. The tissue of the right lobe of the liver was quickly wrapped in tin box and stored at −80° C. for later use.
Preparation of 10% liver homogenate: the liver wrapped in tin box and stored in the ultra-low temperature freezer at −80° C. was taken out, and quickly placed on an ice box. 0.2 g of liver tissue was accurately taken, and ice normal saline with a volume 9 times that of the liver issue was added thereto. 10% tissue homogenate was formed by grounding and mixing, and then centrifuged at 3000 r/min and 4° C. for 10 min. The supernatant was collected for later use.
(§6) Biochemical indicator determination: indicators AST, ALT, TC, TG, NEFA, Bun, Cr, CAT, GSH-Px, GSH, MDA, HL, PL were determined according to the instructions of the kits.

Series [3] deals with hyperlipidemia rats. The series is described as follows: Serum biochemical indicators in high-fat diet hyperlipidemia rats. In kind it is in vivo, SD rats. The conditions noted are these: serum, 20 mg/(kg d) by gastric gavage, 4 weeks; for ALT (U/L) / AST (U/L) / Bun / Cr: x ± s, n = 9.
Source text: as §1, §2, §3, §4
Blood sample collection: 24 h after the last gastric gavage administration, eyeballs were taken out and blood was drawn. Whole blood was collected in an EP tube, and centrifuged at 3000 r/min and 4° C. for 10 min, and the supernatant was collected and stored at −20° C. for blood biochemical indicator test.
as §6

Series [4] deals with hyperlipidemia rats. Description: Liver and kidney indexes in high-fat diet hyperlipidemia rats. It is filed as in vivo, SD rats. The settings on record: 20 mg/(kg d) by gastric gavage, 4 weeks, x ± s, n = 9.
Source text: as §1
Modeling scheme: 54 adult rats of 120±10 g were selected and fed adaptively for three days. They were then randomly divided to 6 groups, 9 animals for each group. They were blank control group, model group, positive control group, nuciferine group, and nuciferine structural modification group. The blank control group was fed with normal diet. […] The feeding and modeling time was 5 weeks.
as §5

[5] abbreviates: TCMSP database, screening threshold OB ≥30%.

Like-named read-outs stand apart in the source and are kept apart here.

With `Oc1cc(O)c2c(c1)OC(c1ccc(O)c(O)c1)C(O)C2O` (single isomer, unassigned; (+)) [(+)-Leucocyanidin], the “OB/% (oral bioavailability)” value in series [1] (setting [5]) is listed as 37.61%.
On to `CN1CCc2cc(O)c(O)cc2[C@@H]1Cc1ccc(O)cc1` [(1S)-1-(4-hydroxybenzyl)-2-methyl-3,4-dihydro-1H-isoquinoline-6,7-diol], for which the “OB/% (oral bioavailability)” value in series [1] (setting [5]) is on record as 67.14%.
For the compound `COc1cc2c(cc1OC)C(Cc1ccc(O)cc1)N(C)CC2` (stereo not drawn) [Armepavine], in series [1] (setting [5]), the “OB/% (oral bioavailability)” value was 69.31%.
Turning to `COc1cc2c3c(c1OC)-c1ccccc1CC3N(C(=O)c1ccc(C)cc1)CC2` (stereo not drawn) [Compound 6c, p-Methylbenzoylnuciferine], in the series with hyperlipidemia rats [2], the “CAT (U/mgprot)” value is given as 27.43 ± 3.14 U/mgprot, the “GSH (μmol/gprot)” value is reported as 374.63 ± 137.14 μmol/gprot, the “GSH-Px (U/mgprot)” value was 567.63 ± 51.57 U/mgprot and the “HL (U/mgprot)” value was found to be 0.44 ± 0.78 U/mgprot. Besides, in the series on hyperlipidemia rats [2], the “LPL (U/mgprot)” value came out at 0.50 ± 0.07 U/mgprot, the “MDA (nmol/mgprot)” value stood at 0.94 ± 0.38 nmol/mgprot, the “NEFA (μmol/g prot)” value is listed as 107.69 ± 6.44 μmol/g prot and the “TG (mmol/g prot)” value was found to be 0.10 ± 0.02 mmol/g prot. Besides, in the series on hyperlipidemia rats [3], the “LDL-C” value turned out to be 0.54 ± 0.08 mmol/L, the “TC” value is reported as 1.93 ± 0.16 mmol/L, the “TG” value is 0.56 ± 0.07 mmol/L and the “ALT (U/L)” value was found to be 16.44 ± 8.69 U/L. Further, in the series on hyperlipidemia rats [3], the “AST (U/L)” value is 7.86 ± 2.24 U/L, the “Bun” value came out at 3.45 ± 0.51 mmol/L and the “Cr” value was 51.39 ± 5.83 µmol/L. In the series on hyperlipidemia rats [4], the “Kidney index (%)” value was determined as 0.68 ± 0.03 % and the “Liver index (%)” value is listed as 4.58 ± 0.26 %.
Turning to `COc1cc2c3c(c1OC)-c1ccccc1CC3N(C(=O)c1ccccc1C)CC2` (stereo not drawn) [Compound 6d, o-Methylbenzoylnuciferine], in the series on hyperlipidemia rats [2], the “CAT (U/mgprot)” value is 25.78 ± 2.67 U/mgprot, the “GSH (μmol/gprot)” value is on record as 360.02 ± 43.63 μmol/gprot, the “GSH-Px (U/mgprot)” value was 562.93 ± 68.91 U/mgprot and the “HL (U/mgprot)” value came to 0.37 ± 0.08 U/mgprot. Further, in the series on hyperlipidemia rats [2], the “LPL (U/mgprot)” value turned out to be 0.42 ± 0.06 U/mgprot, the “MDA (nmol/mgprot)” value stood at 0.95 ± 0.48 nmol/mgprot, the “NEFA (μmol/g prot)” value was 106.32 ± 22.95 μmol/g prot and the “TG (mmol/g prot)” value is 0.13 ± 0.02 mmol/g prot. Also, in the series on hyperlipidemia rats [3], the “LDL-C” value is 0.68 ± 0.15 mmol/L, the “TC” value stood at 2.03 ± 0.09 mmol/L, the “TG” value is given as 0.57 ± 0.07 mmol/L and the “ALT (U/L)” value came out at 15.62 ± 9.43 U/L. For the same compound, in the series with hyperlipidemia rats [3], the “AST (U/L)” value is 7.78 ± 2.27 U/L, the “Bun” value is given as 3.56 ± 0.19 mmol/L and the “Cr” value was found to be 53.82 ± 6.13 µmol/L. For the same compound, in the series with hyperlipidemia rats [4], the “Kidney index (%)” value was determined as 0.68 ± 0.04 % and the “Liver index (%)” value is 4.58 ± 0.24 %.
On to `COc1ccc(C(=O)N2CCc3cc(OC)c(OC)c4c3C2Cc2ccccc2-4)cc1` (stereo not drawn) [Compound 6e, p-Methoxybenzoylnuciferine], for which, in the series with hyperlipidemia rats [2], the “CAT (U/mgprot)” value was determined as 26.34 ± 4.54 U/mgprot, the “GSH (μmol/gprot)” value is given as 363.09 ± 71.72 μmol/gprot, the “GSH-Px (U/mgprot)” value came out at 537.18 ± 34.93 U/mgprot and the “HL (U/mgprot)” value amounted to 0.37 ± 0.07 U/mgprot. Moreover, in the series on hyperlipidemia rats [2], the “LPL (U/mgprot)” value worked out at 0.28 ± 0.04 U/mgprot, the “MDA (nmol/mgprot)” value is reported as 1.02 ± 0.73 nmol/mgprot, the “NEFA (μmol/g prot)” value came to 107.69 ± 6.44 μmol/g prot and the “TG (mmol/g prot)” value came to 0.10 ± 0.02 mmol/g prot. In the series with hyperlipidemia rats [3], the “LDL-C” value stood at 0.56 ± 0.08 mmol/L, the “TC” value was found to be 1.95 ± 0.13 mmol/L, the “TG” value stood at 0.55 ± 0.05 mmol/L and the “ALT (U/L)” value turned out to be 15.54 ± 8.69 U/L. Moreover, in the series with hyperlipidemia rats [3], the “AST (U/L)” value worked out at 7.65 ± 2.26 U/L, the “Bun” value is on record as 3.43 ± 0.27 mmol/L and the “Cr” value was 52.90 ± 2.21 µmol/L. Further, in the series with hyperlipidemia rats [4], the “Kidney index (%)” value is on record as 0.68 ± 0.05 % and the “Liver index (%)” value came out at 4.58 ± 0.27 %.
Turning to `COc1cc2c3c(c1OC)-c1ccccc1CC3N(C(C)=O)CC2` (stereo not drawn) [Compound 6f, Acetylnuciferine], in the series on hyperlipidemia rats [2], the “CAT (U/mgprot)” value was 27.42 ± 2.82 U/mgprot, the “GSH (μmol/gprot)” value is given as 361.04 ± 43.65 μmol/gprot, the “GSH-Px (U/mgprot)” value amounted to 560.90 ± 62.45 U/mgprot and the “HL (U/mgprot)” value is given as 0.56 ± 0.06 U/mgprot. Moreover, in the series on hyperlipidemia rats [2], the “LPL (U/mgprot)” value is given as 0.26 ± 0.08 U/mgprot, the “MDA (nmol/mgprot)” value is 0.98 ± 0.56 nmol/mgprot, the “NEFA (μmol/g prot)” value was 106.32 ± 22.95 μmol/g prot and the “TG (mmol/g prot)” value stood at 0.13 ± 0.02 mmol/g prot. Moreover, in the series on hyperlipidemia rats [3], the “LDL-C” value was 0.69 ± 0.16 mmol/L, the “TC” value is recorded as 2.02 ± 0.16 mmol/L, the “TG” value was found to be 0.58 ± 0.07 mmol/L and the “ALT (U/L)” value was found to be 16.73 ± 9.74 U/L. Also, in the series with hyperlipidemia rats [3], the “AST (U/L)” value was found to be 7.74 ± 2.22 U/L, the “Bun” value was determined as 3.62 ± 0.15 mmol/L and the “Cr” value worked out at 52.82 ± 4.36 µmol/L. Moreover, in the series on hyperlipidemia rats [4], the “Kidney index (%)” value is 0.68 ± 0.03 % and the “Liver index (%)” value is listed as 4.58 ± 0.25 %.
Turning to `CC(C)=CCC[C@@H](C)[C@H]1CC[C@@]2(C)[C@@H]3CC[C@H]4C(C)(C)[C@@H](O)CC[C@@]45C[C@@]35CC[C@]12C` [Cycloartenol], the “OB/% (oral bioavailability)” value in series [1] (setting [5]) is 38.69%.
Take `COc1cc2c(cc1O)C(Cc1ccc(O)cc1)NCC2` (stereo not drawn) [Machiline]: in series [1] (setting [5]), the “OB/% (oral bioavailability)” value is recorded as 79.64%.
On to `CN1CCc2cc3c(c4c2C1Cc1ccccc1-4)OCO3` (stereo not drawn) [Remerin], for which, in series [1] (setting [5]), the “OB/% (oral bioavailability)” value is 40.75%.
`CCC(C)(C)C(=O)O[C@H]1C[C@@H](C)C=C2C=C[C@H](C)[C@H](CC[C@@H]3C[C@@H](O)CC(=O)O3)[C@H]21` [Simvastatin, simvastatin, reference compound]: in the series with hyperlipidemia rats [2], the “CAT (U/mgprot)” value is reported as 29.35 ± 7.00 U/mgprot, the “GSH (μmol/gprot)” value is 341.36 ± 98.66 μmol/gprot, the “GSH-Px (U/mgprot)” value turned out to be 708.02 ± 47.00 U/mgprot and the “HL (U/mgprot)” value is recorded as 0.45 ± 0.11 U/mgprot. Further, in the series with hyperlipidemia rats [2], the “LPL (U/mgprot)” value is 0.50 ± 0.06 U/mgprot, the “MDA (nmol/mgprot)” value amounted to 0.84 ± 0.19 nmol/mgprot, the “NEFA (μmol/g prot)” value is listed as 103.22 ± 8.89 μmol/g prot and the “TG (mmol/g prot)” value was 0.09 ± 0.01 mmol/g prot. Also, in the series with hyperlipidemia rats [3], the “LDL-C” value was determined as 0.62 ± 0.17 mmol/L, the “TC” value is 2.00 ± 0.19 mmol/L, the “TG” value came to 0.47 ± 0.05 mmol/L and the “ALT (U/L)” value is given as 13.74 ± 4.06 U/L. Also, in the series with hyperlipidemia rats [3], the “AST (U/L)” value was found to be 7.57 ± 1.78 U/L, the “Bun” value amounted to 3.98 ± 0.43 mmol/L and the “Cr” value came to 53.79 ± 7.58 µmol/L. Moreover, in the series on hyperlipidemia rats [4], the “Kidney index (%)” value was 0.68 ± 0.03 % and the “Liver index (%)” value was found to be 4.47 ± 0.36 %.
Regarding `Oc1cc(O)c2c(c1)O[C@@H](c1ccc(O)c(O)c1)[C@@H](O)C2` [ent-Epicatechin], in series [1] (po), the “OB/% (oral bioavailability)” value is given as 48.96%.
On to `COc1cc(-c2oc3cc(O)cc(O)c3c(=O)c2O)ccc1O` [isorhamnetin], for which, in series [1] (setting [5]), the “OB/% (oral bioavailability)” value is 49.6%.
For `Oc1cc(O)c2c(c1)O[C@@H](c1cc(O)c(O)c(O)c1)[C@@H](O)[C@@H]2O` [leucodelphinidin], the “OB/% (oral bioavailability)” value in series [1] (setting [5]) is on record as 30.02%.
In the case of (−)-catechin, in series [1] (po), the “OB/% (oral bioavailability)” value was 49.68%.
For the compound o-Nornuciferine, in series [1] (setting [5]), the “OB/% (oral bioavailability)” value was 33.52%.

These data come from patent publication US20250197356A1, “METHOD FOR SYNTHESIZING NUCIFERINE OR DERIVATIVE THEREOF, DERIVATIVE OF NUCIFERINE AND USE THEREOF” (HUAQIAO UNIVERSITY, priority 2022, published 2025).
